Common to all, as to test: NCI tumour cell line growth inhibition, 48 h
Assay [1] relates to MDA-N.
Assay [2] deals with IGROV1 ovarian.
For assay [3], the system named is OVCAR-4 ovarian.
Assay [4] concerns SK-MEL-28 melanoma.
In assay [5] the test system is OVCAR-3 ovarian.
In assay [6] the test system is OVCAR-8 ovarian.
Assay [7] has as its system CAKI-1 renal.
The subject of assay [8] is K-562 leukemia.
For assay [9], the system named is HL-60(TB) leukemia.

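Protocol summary: plate cells (96-well), add compound at 5 concentrations, incubate 48 h, interpolate endpoints linearly. At the GI50, growth is halved. TGI denotes the concentration required for complete inhibition of growth.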 Bounds are passed on as bounds.

`C1CC2=C(C1)[Se]C(=C1Sc3nsnc3S1)[Se]2`: the TGI was 62 µM in assay [1]; greater than 100 µM in [2]; greater than 100 µM in assay [3]; greater than 100 µM in [4]; greater than 100 µM in assay [5]; greater than 100 µM in [6]. The TGI in assay [7] was greater than 100 µM.
Turning to `Nc1nc2c(=O)c3ccccc3sc2s1`, the TGI in assay [1] is greater than 100 µM; in [2], greater than 100 µM; in [4], greater than 100 µM; in assay [5], greater than 100 µM; in assay [6], 50.7 µM; in assay [8], greater than 100 µM. In addition, the TGI in [9] is greater than 100 µM; in assay [7], 91.6 µM.
For the compound `C/C=C/[C@@]1(OC(=O)c2ccccc2)C[C@@H]2CCCC[C@@H]21`, the TGI came out at 33.4 µM in assay [1]; 32.1 µM in [2]; 32.2 µM in assay [3]; 32.9 µM in assay [4]; 34.7 µM in assay [6]; 56.7 µM in assay [8]. The TGI in [9] is 30.9 µM; in assay [7], 31.4 µM.
Take `CC1=NN(C(=O)CSc2nnc(SCC(=O)N3N=C(C)CC3(O)c3ccccc3)s2)C(O)(c2ccccc2)C1` (configuration not stated): the TGI in assay [1], in assay [2], in assay [3], in assay [4], in assay [5] and in assay [6] was greater than 100 µM each time. For the same compound, the TGI in assay [8] and in assay [7] was greater than 100 µM each time.
Turning to `CC(C)(C)OC(=O)CN1CCNCCNCC1`, the TGI in assay [1], in assay [2], in assay [3], in assay [4], in assay [5] and in [6] was greater than 100 µM throughout. The TGI in [8] and in assay [7] was greater than 100 µM throughout.
In the case of `O=C(c1ccccc1)c1ccc2c(c1)nc1n2C(c2c(Cl)cccc2Cl)SC1` (configuration not stated), the TGI in [1], in assay [2], in [3], in assay [4], in assay [5] and in assay [6] was greater than 100 µM in each case. Moreover, the TGI in assay [9] and in [7] was greater than 100 µM in each case.
As for `CC1(C)O[C@H]2Cn3c(c(C#N)c4ccccc43)[C@H]2O1`, the TGI in assay [1], in [2], in assay [3], in [4], in assay [5] and in assay [9] was greater than 100 µM throughout. Also, the TGI in assay [7] was greater than 100 µM.
For the compound `C=C(C)[C@@]1(O)O[C@H]2C[C@@]3(C)OC(=CC3=O)/C(C)=C\[C@@H]3OC(=O)[C@@]1(C)[C@H]32`, the TGI in assay [2] is 24.9 µM; in assay [3], greater than 100 µM; in assay [4], 30.4 µM; in assay [5] it was 34.2 µM; in assay [6], greater than 100 µM; in [8] it was 35.4 µM. The TGI was greater than 47.2 µM in assay [9] and 42.9 µM in assay [7].
As for `CCOC(=O)CCCn1nnc(C(=O)OCC)c1C(=O)OCC`, the TGI in assay [1], in assay [2], in assay [3], in assay [4], in assay [6] and in assay [7] was greater than 100 µM in each case.
Take `O=C(Cn1c(=O)oc2ccc(C(=O)c3ccc(F)cc3)cc21)c1ccc([N+](=O)[O-])cc1`: the TGI in assay [1] was 60.9 µM; in assay [2] it was 78.3 µM; in assay [3] it was greater than 100 µM; in assay [4], greater than 100 µM; in assay [6], greater than 100 µM; in [8] it was greater than 100 µM. Also, the TGI is 60 µM in [9] and greater than 100 µM in [7].
On to `COc1ccc(-c2nc(N)c(C#N)c3c2CCS(=O)(=O)c2ccc(C)cc2-3)cc1OC`, for which the TGI in assay [1] was 51 µM; in assay [2] it was greater than 100 µM; in [3] it was greater than 100 µM; in assay [4], greater than 100 µM; in assay [5], greater than 100 µM; in [6] it was greater than 100 µM. The TGI in [8] is 29.4 µM; in assay [7], greater than 100 µM.
In the case of `COC(=O)c1cn(CCCC(=O)O)nn1`, the TGI in assay [1], in [2], in [3], in assay [4], in assay [6] and in assay [7] was greater than 100 µM throughout.
For the compound `COc1cccc2c1OC1c3ccccc3OCC1C2` (configuration not stated), the TGI in [1], in assay [2], in assay [5], in assay [6], in assay [8] and in assay [7] was greater than 100 µM throughout.
As to `O=C1c2c(F)c(F)c(F)c(F)c2SC2=NCCN12`, the TGI was 11.9 µM in assay [1]; 17.7 µM in assay [2]; 8.91 µM in assay [3]; 22.8 µM in assay [4]; 9.21 µM in assay [5]; 24.5 µM in assay [6]. In addition, the TGI in [8] is greater than 22.5 µM; in assay [7], 6.67 µM.
On to `CCCC(=O)O`, for which the TGI in assay [1], in assay [2], in assay [3], in assay [4], in assay [5] and in [6] was greater than 18700 µM throughout. The TGI in assay [9] was greater than 18700 µM; in assay [7], 12000 µM. Moreover, in assay [9], the GI50 was 1120 µM.
In the case of `FC(F)(F)c1ccc(-c2nc(-c3nc4cc(Cl)c(Cl)cc4[nH]3)c3ccccn23)cc1`, the GI50 is 16.1 µM in assay [2]; 1.87 µM in [3]; 3.74 µM in assay [5]; 6.61 µM in [6]; greater than 100 µM in [8]; greater than 100 µM in [9]. Also, the TGI was greater than 100 µM in assay [2]; 5.41 µM in assay [3]; greater than 100 µM in assay [5]; greater than 100 µM in assay [6]; greater than 100 µM in assay [8]; greater than 100 µM in [9].
For the compound `COc1ccc2oc(=N)c(C(=O)Nc3cccc4ccccc34)cc2c1`, the TGI in assay [1] is 18.8 µM; in assay [3], 40.3 µM; in [4], greater than 100 µM; in assay [5], 30.8 µM; in [8], greater than 100 µM; in assay [9] it was greater than 100 µM. In assay [7], this compound showed a TGI greater than 100 µM.

For the origin of these results see PubChem BioAssay (NCI).
